Results on 16 molecules are retold here after US8921307B2, “Synthetic linear apelin mimetics for the treatment of heart failure” (priority 2012, dated 2014).

In series [1] the target is T1, hAPJ (Homo sapiens, UniProt P35414).
T1 sequence (P35414 1-380): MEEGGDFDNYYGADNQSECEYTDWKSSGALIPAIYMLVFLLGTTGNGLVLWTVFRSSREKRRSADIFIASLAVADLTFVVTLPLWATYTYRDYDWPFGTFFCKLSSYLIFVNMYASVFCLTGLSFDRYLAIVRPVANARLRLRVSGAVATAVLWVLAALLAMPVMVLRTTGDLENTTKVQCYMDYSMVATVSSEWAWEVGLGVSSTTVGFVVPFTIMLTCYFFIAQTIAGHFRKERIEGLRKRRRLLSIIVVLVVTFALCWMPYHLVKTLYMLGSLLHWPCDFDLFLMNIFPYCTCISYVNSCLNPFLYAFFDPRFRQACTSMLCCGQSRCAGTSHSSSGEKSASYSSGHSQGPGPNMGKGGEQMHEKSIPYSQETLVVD
The series is described as follows: hAPJ Calcium Flux Assay. To be noted: Chem-5 APJ stable cells, FLIPR calcium flux stimulation; read-out: hAPJ Ca^2+ Flux EC50. It counts as cell-based. The procedure, abridged: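 Chem-5 cells stably expressing APJ, loaded 1 h with Calcium 4 dye plus 2.5 mM probenecid at 37 °C. Peptides added at final […] in HBSS/HEPES/0.1% BSA, in triplicate.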
A general note: Calcium flux is commonly read through the fluorescence of an indicator in the cells.

The nature of series [2]: Surrogate Activity-Based Plasma Stability Assay. The format is in vitro ADME. To be noted: rat, Surrogate activity-based Plasma stability t½. The procedure: Stability half-life was then calculated by the formula, t½=0.693÷k Surrogate Activity-Based Plasma Stability Assay: […]
2) Calculate slope of value above and […]

SMILES strings stand for the structures. Where a SMILES comes first, the peptide text is derived from it. [ ]: non-standard residue; d: D form. pGlu = O=C1CC[C@@H](C(=O)O)N1; dNle = CCCC[C@@H](N)C(=O)O; dNva = CCC[C@@H](N)C(=O)O

Turning to `CCCC[C@@H](NC(=O)[C@@H]1CCCN1C(=O)CNC(=O)[C@H](CCCCN)NC(=O)[C@H](Cc1c[nH]cn1)NC(=O)[C@@H](C)NC(=O)[C@H](CC(C)C)NC(=O)[C@H](CCCNC(=N)N)NC(=O)[C@@H]1CCCN1C(=O)[C@H](CCCNC(=N)N)NC(=O)[C@@H]1CCC(=O)N1)C(=O)N[C@H](CC)C(=O)N[C@H](Cc1ccccc1)C(=O)O` [Example 45, pE-R-P-R-L-a-H-K-G-P-nle-abu-f-OH], in series [1], the EC50 (as a rule, the concentration needed to bring the measured effect to its halfway point) came out at 2.4 nM. The half-life (usually the time in which the quantity being followed falls by half) in series [2] is > 16.7 h.

For `CCCC[C@@H](NC(=O)[C@@H]1CCCN1C(=O)CNC(=O)[C@H](CCCCN)NC(=O)[C@@H](Cc1ccccc1)NC(=O)[C@@H](C)NC(=O)[C@H](CC(C)C)NC(=O)[C@H](CCCNC(=N)N)NC(=O)[C@@H]1CCCN1C(=O)[C@H](CCCNC(=N)N)NC(=O)[C@@H]1CCC(=O)N1)C(=O)N[C@H](C)C(=O)N[C@H](Cc1ccccc1)C(=O)O` [Example 46, pE-R-P-R-L-a-f-K-G-P-nle-a-f-OH] ([pGlu]RPRL[dA][dF]KGP[dNle][dA][dF]-OH), the EC50 in series [1] was found to be 9.2 nM. In series [2], this molecule showed a half-life of 8.87 h.

As for `CCCC[C@@H](NC(=O)[C@@H]1CCCN1C(=O)CNC(=O)[C@H](CCCCN)NC(=O)[C@H](CC(C)C)NC(=O)[C@@H](C)NC(=O)[C@H](CC(C)C)NC(=O)[C@H](CCCNC(=N)N)NC(=O)[C@@H]1CCCN1C(=O)[C@H](CCCNC(=N)N)NC(=O)[C@@H]1CCC(=O)N1)C(=O)N[C@H](C)C(=O)N[C@H](Cc1ccccc1)C(=O)O` [Example 47, pE-R-P-R-L-a-L-K-G-P-nle-a-f-OH] ([pGlu]RPRL[dA]LKGP[dNle][dA][dF]-OH), in series [1], the EC50 is 4.4 nM. The half-life in series [2] is > 16.7 h.

As to `CCCC[C@@H](NC(=O)[C@@H]1CCCN1C(=O)CNC(=O)[C@H](CCCCN)NC(=O)[C@@H](C)NC(=O)[C@@H](C)NC(=O)[C@H](CC(C)C)NC(=O)[C@H](CCCNC(=N)N)NC(=O)[C@@H]1CCCN1C(=O)[C@H](CCCNC(=N)N)NC(=O)[C@@H]1CCC(=O)N1)C(=O)N[C@H](C)C(=O)N[C@H](Cc1ccccc1)C(=O)O` [Example 48, pE-R-P-R-L-a-a-K-G-P-nle-a-f-OH] ([pGlu]RPRL[dA][dA]KGP[dNle][dA][dF]-OH), in series [1], the EC50 worked out at 16.1 nM. Besides, the half-life in series [2] stood at 4.13 h.

`CCCC[C@@H](NC(=O)[C@@H]1CCCN1C(=O)CNC(=O)[C@H](CCCCN)NC(=O)[C@H](Cc1c[nH]cn1)NC(=O)[C@@H](C)NC(=O)[C@H](CC(C)C)NC(=O)[C@H](CCCNC(=N)N)NC(=O)[C@@H](C)NC(=O)[C@H](CCCNC(=N)N)NC(=O)[C@@H]1CCC(=O)N1)C(=O)N[C@H](C)C(=O)N[C@H](Cc1ccccc1)C(=O)O` [Example 49, pE-R-a-R-L-a-H-K-G-P-nle-a-f-OH] ([pGlu]R[dA]RL[dA]HKGP[dNle][dA][dF]-OH): the EC50 in series [1] came to 623 nM. In series [2], the half-life was > 16.7 h.

In the case of `CCCC[C@@H](NC(=O)[C@@H]1CCCN1C(=O)CNC(=O)[C@H](CCCCN)NC(=O)[C@H](Cc1c[nH]cn1)NC(=O)[C@@H](C)NC(=O)[C@H](CC(C)C)NC(=O)[C@H](CCCNC(=N)N)NC(=O)[C@@H]1CCCN1C(=O)[C@@H](N)CCCNC(=N)N)C(=O)N[C@H](Cc1ccccc1)C(=O)O` [Example 50, H-R-P-R-L-a-H-K-G-P-nle-f-OH] (H-RPRL[dA]HKGP[dNle][dF]-OH), in series [1], the concentration giving a half-maximal response (EC50) is 1.4 nM. In series [2], the half-life was 0.183 h.

For the molecule `CCCC[C@@H](NC(=O)[C@@H]1CCCN1C(=O)CNC(=O)[C@H](CCCCN)NC(=O)[C@@H](C)NC(=O)[C@H](CO)NC(=O)[C@H](CC(C)C)NC(=O)[C@H](CCCNC(=N)N)NC(=O)[C@@H]1CCCN1C(=O)[C@H](CCCNC(=N)N)NC(=O)[C@@H]1CCC(=O)N1)C(=O)N[C@H](C)C(=O)N[C@H](Cc1ccccc1)C(=O)O` [Example 51, pE-R-P-R-L-S-a-K-G-P-nle-a-f-OH] ([pGlu]RPRLS[dA]KGP[dNle][dA][dF]-OH), the EC50 in series [1] came out at 8.5 nM. Besides, the half-life in series [2] was > 16.7 h.

For `CCCC[C@@H](NC(=O)[C@@H]1CCCN1C(=O)CNC(=O)[C@H](CCCCN)NC(=O)[C@H](Cc1c[nH]cn1)NC(=O)[C@@H](CCC)NC(=O)[C@H](CC(C)C)NC(=O)[C@H](CCCNC(=N)N)NC(=O)[C@@H]1CCCN1C(=O)[C@H](CCCNC(=N)N)NC(=O)[C@@H]1CCC(=O)N1)C(=O)N[C@H](C)C(=O)N[C@H](Cc1ccccc1)C(=O)O` [Example 52, pE-R-P-R-L-nva-H-K-G-P-nle-a-f-OH] ([pGlu]RPRL[dNva]HKGP[dNle][dA][dF]-OH), the EC50 in series [1] turned out to be 19.5 nM. Further, the half-life in series [2] is > 16.7 h.

For the molecule `CCC[C@@H](NC(=O)[C@@H]1CCCN1C(=O)CNC(=O)[C@H](CCCCN)NC(=O)[C@H](Cc1c[nH]cn1)NC(=O)[C@@H](C)NC(=O)[C@H](CC(C)C)NC(=O)[C@H](CCCNC(=N)N)NC(=O)[C@@H]1CCCN1C(=O)[C@H](CCCNC(=N)N)NC(=O)[C@@H]1CCC(=O)N1)C(=O)N[C@H](C)C(=O)N[C@H](Cc1ccccc1)C(=O)O` [Example 53, pE-R-P-R-L-a-H-K-G-P-nva-a-f-OH] ([pGlu]RPRL[dA]HKGP[dNva][dA][dF]-OH), in series [1], the EC50 was found to be 8.7 nM. For the same molecule, in series [2], the half-life is > 16.7 h.

`CCCC[C@@H](NC(=O)[C@@H]1CCCN1C(=O)CNC(=O)[C@H](CCCCN)NC(=O)[C@H](Cc1c[nH]cn1)NC(=O)[C@@H](C)NC(=O)[C@H](CC(C)C)NC(=O)[C@H](CCCNC(=N)N)NC(=O)[C@@H]1CCCN1C(=O)[C@H](CCCNC(=N)N)NC(=O)[C@@H]1CCC(=O)N1)C(=O)N[C@H](CCC)C(=O)N[C@H](Cc1ccccc1)C(=O)O` [Example 54, pE-R-P-R-L-a-H-K-G-P-nle-nva-f-OH] ([pGlu]RPRL[dA]HKGP[dNle][dNva][dF]-OH): the EC50 in series [1] turned out to be 0.9 nM. In addition, the half-life in series [2] amounted to 15 h.

`CCCC[C@@H](NC(=O)[C@@H]1CCCN1C(=O)CNC(=O)[C@H](CCCCN)NC(=O)[C@@H](Cc1ccccc1)NC(=O)[C@H](CO)NC(=O)[C@H](CC(C)C)NC(=O)[C@H](CCCNC(=N)N)NC(=O)[C@@H]1CCCN1C(=O)[C@H](CCCNC(=N)N)NC(=O)[C@@H]1CCC(=O)N1)C(=O)N[C@H](C)C(=O)N[C@H](Cc1ccccc1)C(=O)O` [Example 55, pE-R-P-R-L-S-f-K-G-P-nle-a-f-OH] ([pGlu]RPRLS[dF]KGP[dNle][dA][dF]-OH): the EC50 in series [1] worked out at 72.8 nM. The molecule further showed a half-life in series [2] of 1.68 h.

As for `CCCC[C@@H](NC(=O)[C@@H]1CCCN1C(=O)CNC(=O)[C@H](CCCCN)NC(=O)[C@@H](Cc1c[nH]cn1)NC(=O)[C@H](CO)NC(=O)[C@H](CC(C)C)NC(=O)[C@H](CCCNC(=N)N)NC(=O)[C@@H]1CCCN1C(=O)[C@H](CCCNC(=N)N)NC(=O)[C@@H]1CCC(=O)N1)C(=O)N[C@H](C)C(=O)N[C@H](Cc1ccccc1)C(=O)O` [Example 56, pE-R-P-R-L-S-h-K-G-P-nle-a-f-OH] ([pGlu]RPRLS[dH]KGP[dNle][dA][dF]-OH), the EC50 in series [1] is 6.8 nM. Besides, the half-life in series [2] is 5.52 h.

On to `CC(C)C[C@H](NC(=O)[C@H](CCCNC(=N)N)NC(=O)[C@@H]1CCCN1C(=O)[C@H](CCCNC(=N)N)NC(=O)[C@@H]1CCC(=O)N1)C(=O)N[C@H](C)C(=O)N[C@@H](Cc1c[nH]cn1)C(=O)N[C@@H](CCCCN)C(=O)NCC(=O)N1CCC[C@H]1C(=O)N[C@H](Cc1ccccc1)C(=O)N[C@H](C)C(=O)N[C@H](Cc1ccccc1)C(=O)O` [Example 57, pE-R-P-R-L-a-H-K-G-P-f-a-f-OH] ([pGlu]RPRL[dA]HKGP[dF][dA][dF]-OH), for which, in series [1], the EC50 worked out at 1.5 nM. Also, the half-life in series [2] is > 16.7 h.

As to `CCCC[C@@H](NC(=O)[C@@H]1CCCN1C(=O)CNC(=O)[C@H](CCCCN)NC(=O)[C@@H](Cc1c[nH]cn1)NC(=O)[C@H](C)NC(=O)[C@H](CC(C)C)NC(=O)[C@H](CCCNC(=N)N)NC(=O)[C@@H]1CCCN1C(=O)[C@H](CCCNC(=N)N)NC(=O)[C@@H]1CCC(=O)N1)C(=O)N[C@H](C)C(=O)N[C@H](Cc1ccccc1)C(=O)O` [Example 58, pE-R-P-R-L-A-h-K-G-P-nle-a-f-OH], the EC50 in series [1] came to 55.1 nM. In addition, the half-life in series [2] came to 3.8 h.

For `CCCC[C@@H](NC(=O)[C@@H]1CCCN1C(=O)CNC(=O)[C@H](CCC(N)=O)NC(=O)[C@H](Cc1c[nH]cn1)NC(=O)[C@@H](C)NC(=O)[C@H](CC(C)C)NC(=O)[C@H](CCCNC(=N)N)NC(=O)[C@@H]1CCCN1C(=O)[C@H](CCCNC(=N)N)NC(=O)[C@@H]1CCC(=O)N1)C(=O)N[C@H](C)C(=O)N[C@H](Cc1ccccc1)C(=O)O` [Example 59, pE-R-P-R-L-a-H-Q-G-P-nle-a-f-OH] ([pGlu]RPRL[dA]HQGP[dNle][dA][dF]-OH), the EC50 in series [1] came out at 7.4 nM. The same molecule yielded a half-life in series [2] of 14.2 h.

On to `CCCC[C@@H](NC(=O)[C@@H]1CCCN1C(=O)CNC(=O)[C@H](CCC(=O)O)NC(=O)[C@H](Cc1c[nH]cn1)NC(=O)[C@@H](C)NC(=O)[C@H](CC(C)C)NC(=O)[C@H](CCCNC(=N)N)NC(=O)[C@@H]1CCCN1C(=O)[C@H](CCCNC(=N)N)NC(=O)[C@@H]1CCC(=O)N1)C(=O)N[C@H](C)C(=O)N[C@H](Cc1ccccc1)C(=O)O` [Example 60, pE-R-P-R-L-a-H-E-G-P-nle-a-f-OH] ([pGlu]RPRL[dA]HEGP[dNle][dA][dF]-OH), for which the EC50 in series [1] was determined as 200 nM. Moreover, the half-life in series [2] is > 16.7 h.
